Test results: patent US6492366B1, “Cyano-indole serotonin-reuptake inhibitor compound” (Les Laboratoires Servier, priority 1999, dated 2002)

Key:
[1] = tested on: spontaneous marble-burying behaviour of mice; experiment: Marble-burying test in mice; assay type: in vivo; conditions: Mus musculus, 0.5 h; male NMRI mice, 24 marbles, 30 minutes' free exploration; read-out: ED50 (Efficacy dose 50), inhibition of marble-burying
From the text: Marble-burying Test in Mice This test enables evaluation of the capacity of pharmacological agents to inhibit the spontaneous marble-burying behaviour of mice, the inhibition being predictive of antidepressant and/or anti-impulsive action. Male mice of the NMRI strain weighing from 20 to 25 g on the day of the experiment are placed individually in Macrolon boxes (30×18×19 cm) containing 5 cm of sawdust and covered with a perforated plexiglass plate. Twenty four “tiger's eye” glass marbles are evenly distributed on the sawdust at the periphery of the box. At the end of 30 minutes' free exploration, the animals are removed from the box and the number of buried marbles is counted.

[2] = target: T1, serotonin-reuptake sites (Rattus norvegicus, UniProt P31652); experiment: Determination of affinity for serotonin-reuptake sites in the rat ([3H]-paroxetine competition); assay type: binding; conditions: rat frontal cortex membranes, 0.25 nM [3H]-paroxetine, 2 hours at 25° C.
T1 construct: The membranes are prepared from rat frontal cortex; from tissue; host or cells: rat frontal cortex membranes
Experimental: Determination of Affinity for Serotonin-reuptake Sites in the Rat The affinity of the compounds of the invention was determined by competition experiments with [^3H]-paroxetine. The membranes are prepared from rat frontal cortex and are incubated in triplicate with 0.25 nM [^3H]-paroxetine and the cold ligand in a final volume of 0.4 ml, for 2 hours at 25° C. The incubation buffer contains 50 mM TRIS-HCl (pH 7.4), 120 mM NaCl and 5 mM KCl. Non-specific binding is determined using 10 μM citalopram. At the end of the incubation, the mixture is filtered through filters and washed three times with 5 ml of cooled buffer. The radioactivity retained on the filters is determined by liquid scintillation counting. The binding isotherms are analysed by non-linear regression to determine the IC50 values. The latter are converted into a dissociation constant (Ki) using the Cheng-Prusoff equation: Ki=IC50/[…] wherein L is the concentration of [^3H]-paroxetine and Kd is the dissociation constant (0.13 nM).

T1 sequence (P31652 whole entry): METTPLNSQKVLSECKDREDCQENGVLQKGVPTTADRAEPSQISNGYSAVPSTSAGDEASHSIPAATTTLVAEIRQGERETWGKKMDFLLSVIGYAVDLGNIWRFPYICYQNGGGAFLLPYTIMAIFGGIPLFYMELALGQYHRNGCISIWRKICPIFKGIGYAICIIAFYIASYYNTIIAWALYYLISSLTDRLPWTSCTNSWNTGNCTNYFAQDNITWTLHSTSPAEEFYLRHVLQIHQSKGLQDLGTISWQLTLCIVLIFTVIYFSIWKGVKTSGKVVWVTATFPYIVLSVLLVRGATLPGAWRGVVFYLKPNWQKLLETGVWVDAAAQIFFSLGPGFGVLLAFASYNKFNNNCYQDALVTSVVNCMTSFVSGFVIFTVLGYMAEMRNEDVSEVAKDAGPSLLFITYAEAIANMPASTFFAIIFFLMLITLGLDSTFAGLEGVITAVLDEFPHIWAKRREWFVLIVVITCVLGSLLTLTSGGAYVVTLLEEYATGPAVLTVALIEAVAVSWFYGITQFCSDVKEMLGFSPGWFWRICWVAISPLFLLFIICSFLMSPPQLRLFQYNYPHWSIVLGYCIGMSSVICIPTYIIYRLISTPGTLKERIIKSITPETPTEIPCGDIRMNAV

Row | Ki [2] | SMILES | ED50 [1]
1 | 0.4 nM | Cl.N#Cc1ccc2[nH]cc(CC3CCN(CCc4cc5c(cc4Cl)NC(=O)C5)C3)c2c1 (stereo not drawn) [Example 6, 3-({1-[2-(6-Chloro-2-oxo-2,3-dihydro-1H-indol-5-yl)ethyl]-3-pyrrolidinyl}methyl)-1H-indole-5-carbonitrile Hydrochloride] | 3.8 mg/kg
2 |  | Cl.N#Cc1ccc2[nH]cc(CC3CCN(CCc4ccc5c(c4)CC(=O)N5)C3)c2c1 (stereo not drawn) [Example 7, 3-({1-[2-(2-Oxo-2,3-dihydro-1H-indol-5-yl)ethyl]-3-pyrrolidinyl}-methyl)-1H-indole-5-carbonitrile Hydrochloride] | 1.5 mg/kg
